Experiments:
blackgrass = test: Test C pre-/postemergence test; type: in vivo, Alopecurus myosuroides; settings: for Plant response rating, Blackgrass: 31 g ai/ha, scale 0 to 100 (0 no effect, 100 complete control)
Procedure, shortened: (§1)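 Seeds were planted and treated preemergence with test chemical in a non-phytotoxic solvent mixture containing surfactant. Postemergence applications of the same formulation went onto plants 2 to 18 cm tall (1- to 4-leaf stage). A dash marks no test result.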

woolly cupgrass = test: Test C pre-/postemergence test; type: in vivo, Eriochloa villosa; settings: for Plant response rating, Cupgrass, Woolly: 31 g ai/ha, scale 0 to 100 (0 no effect, 100 complete control)
Procedure, shortened: as §1

green foxtail = test: Test C pre-/postemergence test; type: in vivo, Setaria viridis; settings: for Plant response rating, Foxtail, Green: 31 g ai/ha, scale 0 to 100 (0 no effect, 100 complete control)
Procedure, shortened: as §1

soybean = test: Test C pre-/postemergence test; type: in vivo, Glycine max; settings: for Plant response rating, Soybean: 31 g ai/ha, scale 0 to 100 (0 no effect, 100 complete control)
Procedure, shortened: as §1

corn = test: Test C pre-/postemergence test; type: in vivo, Zea mays; settings: for Plant response rating, Corn: 31 g ai/ha, scale 0 to 100 (0 no effect, 100 complete control)
Procedure, shortened: as §1

crabgrass = test: Test C pre-/postemergence test; type: in vivo, Digitaria sanguinalis; settings: for Plant response rating, Crabgrass, Large: 31 g ai/ha, scale 0 to 100 (0 no effect, 100 complete control)
Procedure, shortened: as §1

morningglory [1] = test: Test A pre-/postemergence greenhouse test; type: in vivo, Ipomoea spp.; settings: for Plant response rating, Morningglory: 0 to 100 scale where 0 is no effect and 100 is complete control; for Morningglory plant response rating: 0 to 100 scale
Procedure, shortened: (§2)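 Planting was into mixed loam soil and sand; preemergence treatment followed as a directed soil spray. Concurrently, emerged plants (one- to two-leaf, 2–10 cm) received postemergence applications of identically formulated compound (non-phytotoxic solvent, surfactant). After approximately ten days under greenhouse conditions, injury was judged by eye against untreated plants.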

Italian ryegrass = test: Test C pre-/postemergence test; type: in vivo, Lolium multiflorum; settings: for Plant response rating, Ryegrass, Italian: 31 g ai/ha, scale 0 to 100 (0 no effect, 100 complete control)
Procedure, shortened: as §1

[2] = test system: common (oilseed) sunflower; test: Test C pre-/postemergence test; type: in vivo, Helianthus annuus; settings: for Plant response rating, Sunflower: 31 g ai/ha, scale 0 to 100 (0 no effect, 100 complete control)
Procedure, shortened: as §1

yellow nutsedge = test: Test C pre-/postemergence test; type: in vivo, Cyperus esculentus; settings: for Plant response rating, Nutsedge, Yellow: 31 g ai/ha, scale 0 to 100 (0 no effect, 100 complete control)
Procedure, shortened: as §1

barnyardgrass = test: Test A pre-/postemergence greenhouse test; type: in vivo, Echinochloa crus-galli; settings: for Plant response rating, Barnyardgrass: 0 to 100 scale where 0 is no effect and 100 is complete control; for Barnyardgrass plant response rating: 0 to 100 scale
Procedure, shortened: as §2

wheat = test: Test C pre-/postemergence test; type: in vivo, Triticum aestivum; settings: for Plant response rating, Wheat: 31 g ai/ha, scale 0 to 100 (0 no effect, 100 complete control)
Procedure, shortened: as §1

pigweed = test: Test C pre-/postemergence test; type: in vivo, Amaranthus retroflexus; settings: for Plant response rating, Pigweed: 31 g ai/ha, scale 0 to 100 (0 no effect, 100 complete control)
Procedure, shortened: as §1

morningglory [3] = test: Test C pre-/postemergence test; type: in vivo, Ipomoea coccinea; settings: for Plant response rating, Morningglory: 31 g ai/ha, scale 0 to 100 (0 no effect, 100 complete control)
Procedure, shortened: as §1

cocklebur = test: Test C pre-/postemergence test; type: in vivo, Xanthium strumarium; settings: for Plant response rating, Cocklebur: 31 g ai/ha, scale 0 to 100 (0 no effect, 100 complete control)
Procedure, shortened: as §1

kochia = test: Test C pre-/postemergence test; type: in vivo, Kochia scoparia; settings: for Plant response rating, Kochia: 31 g ai/ha, scale 0 to 100 (0 no effect, 100 complete control)
Procedure, shortened: as §1

umbrella sedge = test: Test C flooded paddy test; type: in vivo, Cyperus difformis; settings: Flood
Procedure, shortened: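 Under a constant 3 cm flood, test compounds went directly into the paddy water. Following 13 to 15 days of greenhouse growth, treated species and controls were compared by eye.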

[4] = 62 g ai/ha, Preemergence, scale 0 to 100
[5] = 125 g ai/ha, preemergence, scale 0 (no effect) to 100 (complete control)
[6] = preemergence, 250 g ai/ha, scale 0 (no effect) to 100 (complete control)
[7] = Postemergence, 500 g ai/ha, 0 is no effect, 100 is complete control
[8] = Preemergence, 125 g ai/ha, 0 no effect, 100 complete control
[9] = 250 g ai/ha, scale 0 to 100, 0 no effect, 100 complete control, 13 to 15 days
[10] = preemergence, 125 g ai/ha, scale 0 (no effect) to 100 (complete control)
[11] = Postemergence, 125 g ai/ha, 0 is no effect, 100 is complete control

## Cn1nc(C(F)(F)F)c(C(Cl)S(=O)(=O)c2cccc[n+]2[O-])c1OC(F)F (stereo not shown) [Compound 51]
blackgrass; [4]
  Blackgrass plant response rating: 90
blackgrass; [5]
  Blackgrass plant response rating: 90
blackgrass; Preemergence
  Plant response rating, Blackgrass: 80
blackgrass; [6]
  Blackgrass plant response rating: 100
Woolly cupgrass; [4]
  Cupgrass, Woolly plant response rating: 70
Woolly cupgrass; [5]
  Cupgrass, Woolly plant response rating: 90
Woolly cupgrass; Preemergence
  Plant response rating, Cupgrass, Woolly: 0
Woolly cupgrass; [6]
  Cupgrass, Woolly plant response rating: 100
Green foxtail; [4]
  Foxtail, Green plant response rating: 85
Green foxtail; [5]
  Foxtail, Green plant response rating: 85
Green foxtail; Preemergence
  Plant response rating, Foxtail, Green: 65
Green foxtail; [6]
  Foxtail, Green plant response rating: 100
soybean; [4]
  Soybean plant response rating: 0
soybean; [5]
  Soybean plant response rating: 0
soybean; Preemergence
  Plant response rating, Soybean: 0
soybean; [6]
  Soybean plant response rating: 0
corn; [4]
  Corn plant response rating: 0
corn; [5]
  Corn plant response rating: 50
corn; Preemergence
  Plant response rating, Corn: 0
corn; [6]
  Corn plant response rating: 50
crabgrass; [4]
  Crabgrass, Large plant response rating: 100
crabgrass; [5]
  Crabgrass, Large plant response rating: 100
crabgrass; Preemergence
  Plant response rating, Crabgrass, Large: 65
crabgrass; [6]
  Crabgrass, Large plant response rating: 100
Morningglory [1]; Postemergence, 125 g ai/ha
  Plant response rating, Morningglory: 60
Morningglory [1]; [7]
  Morningglory plant response rating: 60
Morningglory [1]; [8]
  Morningglory plant response rating: 50
Morningglory [1]; Preemergence, 500 g ai/ha
  Plant response rating, Morningglory: 70
Italian ryegrass; [4]
  Ryegrass, Italian plant response rating: 30
Italian ryegrass; [5]
  Ryegrass, Italian plant response rating: 80
Italian ryegrass; Preemergence
  Plant response rating, Ryegrass, Italian: 0
Italian ryegrass; [6]
  Ryegrass, Italian plant response rating: 80
[2]; [4]
  Sunflower plant response rating: 0
[2]; [5]
  Sunflower plant response rating: 0
[2]; Preemergence
  Plant response rating, Sunflower: 0
[2]; [6]
  Sunflower plant response rating: 0
Yellow nutsedge; [4]
  Nutsedge, Yellow plant response rating: 40
Yellow nutsedge; [5]
  Nutsedge, Yellow plant response rating: 40
Yellow nutsedge; Preemergence
  Plant response rating, Nutsedge, Yellow: 0
Yellow nutsedge; [6]
  Nutsedge, Yellow plant response rating: 100
barnyardgrass; Postemergence, 125 g ai/ha
  Plant response rating, Barnyardgrass: 50
barnyardgrass; [7]
  Barnyardgrass plant response rating: 80
barnyardgrass; [8]
  Barnyardgrass plant response rating: 90
barnyardgrass; Preemergence, 500 g ai/ha
  Plant response rating, Barnyardgrass: 100
wheat; [4]
  Wheat plant response rating: 10
wheat; [5]
  Wheat plant response rating: 20
wheat; Preemergence
  Plant response rating, Wheat: 5
pigweed; [4]
  Pigweed plant response rating: 100
pigweed; [5]
  Pigweed plant response rating: 100
pigweed; Preemergence
  Plant response rating, Pigweed: 85
pigweed; [6]
  Pigweed plant response rating: 100
Morningglory [3]; [4]
  Morningglory plant response rating: 100
Morningglory [3]; [5]
  Morningglory plant response rating: 100
Morningglory [3]; Preemergence
  Plant response rating, Morningglory: 100
Morningglory [3]; [6]
  Morningglory plant response rating: 100
cocklebur; [4]
  Cocklebur plant response rating: 0
cocklebur; [5]
  Cocklebur plant response rating: 0
cocklebur; Preemergence
  Plant response rating, Cocklebur: 0
cocklebur; [6]
  Cocklebur plant response rating: 0
kochia; [4]
  Kochia plant response rating: 100
kochia; [5]
  Kochia plant response rating: 100
kochia; Preemergence
  Plant response rating, Kochia: 65
kochia; [6]
  Kochia plant response rating: 100
Umbrella sedge; [9]
  Plant response rating, Sedge, Umbrella: 95

## Cc1cc[n+]([O-])c(S(=O)(=O)C(Cl)c2c(C(F)(F)F)nn(C)c2Cl)c1 (racemic) [Compound 22]
blackgrass; [4]
  Blackgrass plant response rating: 95
blackgrass; Preemergence
  Plant response rating, Blackgrass: 55
blackgrass; Preemergence, 250 g ai/ha
  Plant response rating (0 to 100), Blackgrass: 98
blackgrass; [10]
  Blackgrass plant response rating: 95
Woolly cupgrass; [4]
  Cupgrass, Woolly plant response rating: 100
Woolly cupgrass; Preemergence
  Plant response rating, Cupgrass, Woolly: 60
Green foxtail; [4]
  Foxtail, Green plant response rating: 100
Green foxtail; Preemergence
  Plant response rating, Foxtail, Green: 100
Green foxtail; Preemergence, 250 g ai/ha
  Plant response rating (0 to 100), Foxtail, Green: 100
soybean; [4]
  Soybean plant response rating: 0
soybean; Preemergence
  Plant response rating, Soybean: 0
corn; [4]
  Corn plant response rating: 20
corn; Preemergence
  Plant response rating, Corn: 0
corn; Preemergence, 250 g ai/ha
  Plant response rating (0 to 100), Corn: 100
corn; [10]
  Corn plant response rating: 30
crabgrass; [4]
  Crabgrass, Large plant response rating: 100
crabgrass; Preemergence
  Plant response rating, Crabgrass, Large: 98
crabgrass; Preemergence, 250 g ai/ha
  Plant response rating (0 to 100), Crabgrass, Large: 100
Morningglory [1]; [11]
  Morningglory plant response rating: 20
Morningglory [1]; [7]
  Morningglory plant response rating: 40
Morningglory [1]; [8]
  Morningglory plant response rating: 70
Morningglory [1]; Preemergence, 500 g ai/ha
  Plant response rating, Morningglory: 90
Italian ryegrass; [4]
  Ryegrass, Italian plant response rating: 40
Italian ryegrass; Preemergence
  Plant response rating, Ryegrass, Italian: 0
[2]; [4]
  Sunflower plant response rating: 0
[2]; Preemergence
  Plant response rating, Sunflower: 0
Yellow nutsedge; [4]
  Nutsedge, Yellow plant response rating: 60
Yellow nutsedge; Preemergence
  Plant response rating, Nutsedge, Yellow: 50
barnyardgrass; [11]
  Barnyardgrass plant response rating: 40
barnyardgrass; [7]
  Barnyardgrass plant response rating: 80
barnyardgrass; [8]
  Barnyardgrass plant response rating: 90
barnyardgrass; Preemergence, 500 g ai/ha
  Plant response rating, Barnyardgrass: 100
wheat; [4]
  Wheat plant response rating: 0
wheat; Preemergence
  Plant response rating, Wheat: 0
pigweed; [4]
  Pigweed plant response rating: 100
pigweed; Preemergence
  Plant response rating, Pigweed: 100
Morningglory [3]; [4]
  Morningglory plant response rating: 0
Morningglory [3]; Preemergence
  Plant response rating, Morningglory: 0
cocklebur; [4]
  Cocklebur plant response rating: 0
cocklebur; Preemergence
  Plant response rating, Cocklebur: 0
cocklebur; Preemergence, 250 g ai/ha
  Plant response rating (0 to 100), Cocklebur: 0
cocklebur; [10]
  Cocklebur plant response rating: 0
kochia; [4]
  Kochia plant response rating: 0
kochia; Preemergence
  Plant response rating, Kochia: 0
Umbrella sedge; 31 g ai/ha, scale 0 to 100 (0 no effect, 100 complete control)
  Plant response rating, Sedge, Umbrella: 60
Umbrella sedge; 62 g ai/ha, scale 0 to 100, 0 no effect, 100 complete control, 13 to 15 days
  Plant response rating, Sedge, Umbrella: 85
Umbrella sedge; 125 g ai/ha, scale 0 to 100, 0 no effect, 100 complete control, 13 to 15 days
  Plant response rating, Sedge, Umbrella: 95
Umbrella sedge; [9]
  Plant response rating, Sedge, Umbrella: 95
